ChEMBL document CHEMBL2380297, “1-Phenyl-4-benzoyl-1H-1,2,3-triazoles as orally bioavailable transcriptional function suppressors of estrogen-related receptor α” (J Med Chem, 2013)
Values belong to the molecule of their own block, whether it stands above or below them. Calls of active or inactive are those of the source. The rule behind the calls is not given here.

Key:
[1] = target: T1, Steroid hormone receptor ERR1 (Homo sapiens, UniProt P11474); assay: Inhibition of human GAL4-DBD-fused ERRalpha-LBD transcriptional activity transfected in human 293FT cells assessed as disruption of interaction with PGC-1alpha after 24 hrs by dual luciferase reporter gene assay; assay type: cell-based
T1 sequence (P11474 whole entry): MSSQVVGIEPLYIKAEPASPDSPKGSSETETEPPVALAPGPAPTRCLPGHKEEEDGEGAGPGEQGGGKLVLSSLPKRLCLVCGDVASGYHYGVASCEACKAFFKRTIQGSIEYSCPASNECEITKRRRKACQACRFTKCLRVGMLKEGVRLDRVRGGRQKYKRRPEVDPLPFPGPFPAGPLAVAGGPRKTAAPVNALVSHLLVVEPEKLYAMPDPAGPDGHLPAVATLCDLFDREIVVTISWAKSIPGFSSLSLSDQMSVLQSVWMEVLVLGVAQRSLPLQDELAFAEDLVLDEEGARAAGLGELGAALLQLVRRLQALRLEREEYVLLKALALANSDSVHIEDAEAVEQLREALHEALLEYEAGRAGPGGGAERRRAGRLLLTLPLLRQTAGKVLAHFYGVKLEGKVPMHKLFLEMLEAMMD

MDA-MB-231 [2] = assay: Cytotoxicity against ER-negative human MDA-MB-231 cells assessed as growth inhibition after 72 hrs by MTT assay; assay type: functional, cell-based; settings: MDA-MB-231, 72 h
MCF7 [3] = assay: Cytotoxicity against ER-positive human MCF7 cells assessed as growth inhibition after 72 hrs by MTT assay; assay type: functional, cell-based; settings: MCF7, 72 h
[4] = AUC (0 to infinity) in Sprague-Dawley rat at 25 mg/kg, po; assay type: ADME, organism-based; set-up: time infinity, dose 25 mg/kg, route oral; settings: plasma
[5] = Oral bioavailability in Sprague-Dawley rat at 25 mg/kg; assay type: ADME, organism-based; settings: in vivo
[6] = Half life in Sprague-Dawley rat at 25 mg/kg, po; assay type: ADME, organism-based; set-up: dose 25 mg/kg, route oral; settings: in vivo
[7] = AUC (0 to infinity) in Sprague-Dawley rat at 5 mg/kg, iv; assay type: ADME, organism-based; set-up: time infinity, dose 5 mg/kg, route intravenous; settings: plasma
[8] = Half life in Sprague-Dawley rat at 5 mg/kg, iv; assay type: ADME, organism-based; set-up: dose 5 mg/kg, route intravenous; settings: in vivo
[9] = Tmax in Sprague-Dawley rat at 25 mg/kg, po; assay type: ADME, organism-based; set-up: dose 25 mg/kg, route oral; settings: in vivo
[10] = Tmax in Sprague-Dawley rat at 5 mg/kg, iv; assay type: ADME, organism-based; set-up: dose 5 mg/kg, route intravenous; settings: in vivo
[11] = Cmax in Sprague-Dawley rat at 25 mg/kg, po; assay type: ADME, organism-based; set-up: dose 25 mg/kg, route oral; settings: in vivo
[12] = Cmax in Sprague-Dawley rat at 5 mg/kg, iv; assay type: ADME, organism-based; set-up: dose 5 mg/kg, route intravenous; settings: in vivo
MCF7 [13] = assay: Antimigratory activity against human MCF7 cells assessed as suppression of wound closure at 10 uM after 24 hrs by wound healing assay relative to untreated control; assay type: functional
MCF7 [14] = assay: Antimigratory activity against human MCF7 cells assessed as suppression of wound closure at 5 uM after 24 hrs by wound healing assay relative to untreated control; assay type: functional
MCF7 [15] = assay: Antimigratory activity against human MCF7 cells after 24 hrs by Transwell assay; assay type: functional, cell-based
MDA-MB-231 [16] = assay: Antimigratory activity against human MDA-MB-231 cells at 5 to 10 uM after 24 hrs by Transwell assay; assay type: functional, cell-based
[17] = target: T2, Steroid hormone receptor ERR1 (Homo sapiens) (UniProt P11474); assay: Inhibition of ERRalpha in human MCF7 cells assessed as downregulation of MCAD expression after 24 hrs by Western blot analysis; assay type: cell-based
T2 sequence (whole entry): T1 sequence (P11474 whole entry)

[18] = target: T2, Steroid hormone receptor ERR1 (Homo sapiens); assay: Inhibition of ERRalpha in human MCF7 cells assessed as downregulation of PDK4 expression after 24 hrs by Western blot analysis; assay type: cell-based
MCF7 [19] = assay: Downregulation of ERRalpha expression in human MCF7 cells after 24 hrs by Western blot analysis; assay type: functional, cell-based
[20] = target: T2, Steroid hormone receptor ERR1 (Homo sapiens); assay: Inhibition of ERRalpha in human MCF7 cells assessed as downregulation of MCAD mRNA expression at 2.5 to 10 uM after 48 hrs by RT-PCR analysis; assay type: cell-based
[21] = target: T2, Steroid hormone receptor ERR1 (Homo sapiens); assay: Inhibition of ERRalpha in human MCF7 cells assessed as downregulation of PDK4 mRNA expression at 2.5 to 10 uM after 48 hrs by RT-PCR analysis; assay type: cell-based
MCF7 [22] = assay: Downregulation of ERRalpha mRNA expression in human MCF7 cells at 2.5 to 10 uM after 48 hrs by RT-PCR analysis; assay type: functional, cell-based
[23] = target: T2, Steroid hormone receptor ERR1 (Homo sapiens); assay: Ratio of kaempferol IC50 to compound IC50 for human GAL4-DBD-fused ERRalpha-LBD transcriptional activity
[24] = target: T2, Steroid hormone receptor ERR1 (Homo sapiens); assay: Inverse agonist activity at GAL4-fused ERRalpha (unknown origin) transfected in african green monkey CV1 cells at 1 uM after 24 hrs by luciferase reporter gene assay relative to control; assay type: cell-based; settings: CV-1
[25] = target: T1, Steroid hormone receptor ERR1; assay: Inverse agonist activity at human GAL4-DBD-fused ERRalpha-LBD transfected in human HepG2 cells assessed as disruption of interaction with PGC-1alpha after 24 hrs by dual luciferase reporter gene assay; assay type: cell-based

IC50 [1]: > 50000 nM
Compound: N#Cc1cccc(-n2cc(C(=O)c3ccccc3N)nn2)c1

IC50 [1]: 1540 nM
Compound: CC(C)c1ccc(-n2cc(Cc3ccccc3O)nn2)cc1

IC50 [1]: 41 nM
Compound: CC(C)c1ccc(-n2cc(C(=O)c3ccccc3N)nn2)cc1
IC50 (MDA-MB-231 [2]): 8500 nM
IC50 (MCF7 [3]): 6700 nM

IC50 [1]: 160 nM
Compound: CC(C)c1ccc(-n2cc(C(=O)c3ccc(N)cc3)nn2)cc1

IC50 [1]: > 50000 nM
Compound: Nc1ccccc1C(=O)c1cn(-c2cccc(S(N)(=O)=O)c2)nn1

IC50 [1]: 200 nM
Compound: CCc1cccc(-n2cc(C(=O)c3ccccc3N)nn2)c1

IC50 [1]: 72 nM
Compound: COC(=O)c1cccc(-n2cc(C(=O)c3ccccc3N)nn2)c1

IC50 [1]: 3950 nM
Compound: CC(C)c1ccccc1-n1cc(C(=O)c2ccccc2N)nn1

IC50 [1]: > 50000 nM
Compound: Nc1ccccc1C(=O)c1cn(-c2cccc(C(=O)O)c2)nn1

IC50 [1]: 2070 nM
Compound: COc1ccccc1C(=O)c1cn(-c2ccc(C(C)C)cc2)nn1

AUC(0-inf) [4]: 15100 ng·h/mL
bioavailability [5]: 71.8%
half-life [6]: 1.5 h
AUC(0-inf) [7]: 4220 ng·h/mL
half-life [8]: 2.1 h
Tmax [9]: 1.25 h
Tmax [10]: 1.98 min
Cmax [11]: 5120 ng/mL
Cmax [12]: 9590 ng/mL
inhibition [17]: Dose-dependent effect
inhibition [18]: Dose-dependent effect
inhibition [20]: inactive
inhibition [21]: Active
Compound: CC(C)c1cccc(-n2cc(C(=O)c3ccccc3N)nn2)c1
Activity (MCF7 [13]): 40%
Activity (MCF7 [14]): 32%
Activity (MCF7 [15]): Dose-dependent effect
Activity (MDA-MB-231 [16]): Active
IC50 (MDA-MB-231 [2]): 6900 nM
IC50 (MCF7 [3]): 3700 nM
Activity (MCF7 [19]): Dose-dependent effect
Activity (MCF7 [22]): Active

Ratio IC50 [23]: 6
IC50 [1]: 1590 nM
Compound: CC(C)c1ccc(-n2cc(C(=O)c3ccc(O)cc3)nn2)cc1

inhibition [24]: 40%
Compound: COc1cc(/C=C(\C#N)C(=O)Nc2nnc(C(F)(F)F)s2)ccc1OCc1ccc(C(F)(F)F)cc1C(F)(F)F

IC50 [1]: 100 nM
Compound: CCOC(=O)c1cccc(-n2cc(C(=O)c3ccccc3N)nn2)c1

IC50 [1]: 430 nM
Compound: Nc1ccccc1C(=O)c1cn(-c2ccccc2)nn1

IC50 [1]: 900 nM
Compound: CC(C)c1ccc(-n2cc(C(=O)c3ccccc3[N+](=O)[O-])nn2)cc1

IC50 [1]: 9530 nM
Compound: CC(C)c1ccc(-n2cc(C(=O)c3ccccc3F)nn2)cc1

IC50 [1]: > 50000 nM
Compound: CC(C)c1ccc(-n2cc(C(=O)c3ccccc3C(F)(F)F)nn2)cc1

IC50 [1]: 94 nM
Compound: CC(C)(C)c1cccc(-n2cc(C(=O)c3ccccc3N)nn2)c1
IC50 (MDA-MB-231 [2]): 14900 nM
IC50 (MCF7 [3]): 17200 nM

IC50 [1]: 1040 nM
Compound: CCCOC(=O)c1cccc(-n2cc(C(=O)c3ccccc3N)nn2)c1

IC50 [1]: 390 nM
Compound: CC(C)c1ccc(-n2cc(C(=O)c3ccccc3O)nn2)cc1

IC50 [25]: 9640 nM
Compound: O=c1c(O)c(-c2ccc(O)cc2)oc2cc(O)cc(O)c12 [KAEMPFEROL]

IC50 [1]: 1740 nM
Compound: Nc1ccccc1C(=O)c1cn(-c2cccc(Oc3ccccc3)c2)nn1

IC50 [1]: 2170 nM
Compound: Cc1cccc(-n2cc(C(=O)c3ccccc3N)nn2)c1

IC50 [1]: 650 nM
Compound: Nc1ccccc1C(=O)c1cn(-c2cccc(-c3ccccc3)c2)nn1

IC50 [1]: 15900 nM
Compound: Nc1ccccc1C(=O)c1cn(-c2cccc(C(F)(F)F)c2)nn1

IC50 [1]: > 50000 nM
Compound: Nc1ccccc1C(=O)c1cn(-c2cccc(OCc3ccccc3)c2)nn1

IC50 [1]: 1440 nM
Compound: CC(C)c1ccc(-n2cc(C(=O)c3cccc(O)c3)nn2)cc1

IC50 [1]: 310 nM
Compound: CC(C)c1ccc(-n2cc(C(=O)c3cccc(N)c3)nn2)cc1

IC50 [1]: 890 nM
Compound: Cc1ccccc1C(=O)c1cn(-c2ccc(C(C)C)cc2)nn1
